Key:
Flag-ER = experiment: Inducible 3' Flag-ER expression (ARGENT system) in stably transfected MCF-7 derivative, Western blotting; format: cell-based, human; conditions: treated six hours, Western blot, FIG. 2
Excerpt: To tightly regulate expression of the Flag-ER gene, the Ariad “ARGENT” inducible gene expression system (25) (www.ariad.com) was used. This system allows for tight and specific regulation of a target gene.
To identify physiologically relevant ER-interacting proteins, the MCF-7 cell line was used. […] First, a stable derivative of MCF-7 in which target genes can be inducibly expressed was constructed. The construction of this cell line and an example of its use have been previously described (27). Next, the 5′ and 3′ Flag-ER constructs were subcloned into the target vector, and these constructs were stably transfected into the MCF-7 derivative described above. […] Stable transfectants containing either 3′ Flag-ER or empty vector were treated as indicated (in FIG. 2) for six hours, and lysates were analyzed by Western blotting (WB) with antibodies to ER, Flag, or Actin.

ER/MP1 complex = molecular target: T1, ER/MP1 complex (Homo sapiens, UniProt P03372); conditions: MCF-7 cells pre-treated in absence of E2, then ligand for 2 h; IP with ER or MP1 antibody; FIG. 4
T1 sequence (P03372 1-595): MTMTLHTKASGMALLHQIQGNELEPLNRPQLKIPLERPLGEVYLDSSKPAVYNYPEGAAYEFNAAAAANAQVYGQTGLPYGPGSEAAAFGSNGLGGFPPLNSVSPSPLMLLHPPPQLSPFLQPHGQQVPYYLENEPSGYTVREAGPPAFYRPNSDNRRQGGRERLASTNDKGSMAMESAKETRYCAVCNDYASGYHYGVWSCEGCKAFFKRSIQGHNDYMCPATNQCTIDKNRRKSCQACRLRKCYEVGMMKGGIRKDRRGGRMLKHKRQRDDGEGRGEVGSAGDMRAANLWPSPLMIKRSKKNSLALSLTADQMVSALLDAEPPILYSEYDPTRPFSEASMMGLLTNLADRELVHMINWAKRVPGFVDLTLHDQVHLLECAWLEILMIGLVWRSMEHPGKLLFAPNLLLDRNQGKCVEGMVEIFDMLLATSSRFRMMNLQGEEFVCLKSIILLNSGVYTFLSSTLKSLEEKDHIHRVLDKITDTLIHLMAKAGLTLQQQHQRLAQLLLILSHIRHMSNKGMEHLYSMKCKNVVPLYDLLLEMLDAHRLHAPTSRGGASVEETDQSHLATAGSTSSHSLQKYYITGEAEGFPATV
Procedure: One limitation to inducible expression systems is that proteins are expressed at very high levels, and complexes may form that are not physiologically relevant. […] Cell lysates were prepared and precipitated with either 0-ER (Labvision/NeoMarker) or 0-MP1 (Santa Cruz) antibody and protein G agarose beads.

ER = molecular target: T2, ER (Homo sapiens, UniProt P03372); conditions: MCF-7 cells, 24 h in medium lacking E2, ligand for 3 h; MP1 vs empty vector; FIG. 5
T2 sequence (P03372 1-595): T1 sequence (P03372 1-595)

MCF-7 cells = experiment: BrdU incorporation proliferation assay in MCF-7 cells transfected with MP1 expression vector or empty vector; format: cell-based, human; conditions: ligand for 48 h, BrdU for the final 5 h, FIG. 6
Procedure: The ER has both genomic and non-genomic activities, and its activity in transcription assays may not fully represent its ability to regulate cell proliferation. […] To label proliferating cells, BrdU (which is incorporated into DNA during DNA synthesis) was added to the cultures for the final 5 h of incubation. Cells were then fixed, labeled with a fluorescent anti-BrdU antibody, and the percentage of cells that incorporated BrdU (ie, were proliferating) was determined.

Structure (SMILES): CO[C@H]1[C@@H](O)[C@H](C)C[C@H](C)/C=C/C=C/C=C(\C)[C@@H](c2c[nH]c3c(C)cccc23)C[C@@H]2CC[C@@H](C)[C@@](O)(O2)C(=O)C(=O)N2CCCC[C@H]2C(=O)O[C@H]([C@H](C)C[C@@H]2CC[C@@H](O)[C@H](OC)C2)C[C@H](O)[C@H](C)/C=C(\C)[C@H]1O [AP21967]
- Flag-ER expression from the transfected gene (Flag-ER; cells containing 3' Flag-ER): highly induced
- endogenous ER expression (Flag-ER; vector containing cells): did not alter this expression

Structure (SMILES): C[C@]12CC[C@@H]3c4ccc(O)cc4C[C@@H](CCCCCCCCC[S+]([O-])CCCC(F)(F)C(F)(F)F)[C@H]3[C@@H]1CC[C@@H]2O (some centres unmarked) [ICI, ICI 182,780]
- co-precipitation of MP1 with ER (ER/MP1 complex formation) (ER/MP1 complex): not
- effect of MP1 co-transfection on ER activity (ERE-Luc) in the presence of ligand (ER): not

Structure (SMILES): CC/C(=C(\c1ccccc1)c1ccc(OCCN(C)C)cc1)c1ccccc1 [Tam, tamoxifen]
- effect of MP1 overexpression on proliferation (percentage of cells that incorporated BrdU) in the presence of ligand (MCF-7 cells): dramatically increases proliferation

Reference: patent US20070172843A1, “MEK interacting protein 1 as diagnostic and therapeutic target for breast cancer treatment and prevention” (priority 2005, published 2007)
